PubChem BioAssay (NCI)
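All cell lines were grown in 96-well plates and treated with compound for 48 hours. GI50 = concentration required for 50% inhibition of growth. Definition used: TGI = concentration required for complete inhibition of growth.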

Experiments:
Assay in all cases: NCI-60 cell line screen, 48 h
[1] = test system: CAKI-1 renal
[2] = test system: HCT-116 colon
[3] = test system: SF-268 CNS
[4] = test system: MCF7 breast
[5] = test system: NCI-H460 lung
[6] = test system: SF-295 CNS
[7] = test system: RPMI-8226 leukemia
[8] = test system: UACC-62 melanoma
[9] = test system: OVCAR-4 ovarian
[10] = test system: HL-60(TB) leukemia
[11] = test system: KM12 colon
[12] = test system: UACC-257 melanoma
[13] = test system: SK-OV-3 ovarian
[14] = test system: SR leukemia
[15] = test system: SK-MEL-28 melanoma
[16] = test system: SN12C renal
[17] = test system: OVCAR-8 ovarian
[18] = test system: NCI-H522 lung
[19] = test system: EKVX NSCLC
[20] = test system: LOX IMVI melanoma
[21] = test system: U251 CNS
[22] = test system: HOP-92 NSCLC
[23] = test system: MOLT-4 leukemia
[24] = test system: SNB-19 CNS
[25] = test system: K-562 leukemia
[26] = test system: CCRF-CEM leukemia
[27] = test system: RXF 393 renal
[28] = test system: SK-MEL-5 melanoma
[29] = test system: A549 NSCLC
[30] = test system: HS 578T breast
[31] = test system: SF-539 CNS
[32] = test system: 786-0 renal
[33] = test system: MDA-MB-435
[34] = test system: NCI-H226 lung
[35] = test system: HT29 colon
[36] = test system: ACHN renal
[37] = test system: NCI-H23 lung
[38] = test system: SW-620 colon
[39] = test system: SK-MEL-2 melanoma
[40] = test system: HOP-62 NSCLC
[41] = test system: COLO 205 colon
[42] = test system: HCC-2998 colon
[43] = test system: T-47D breast
[44] = test system: NCI/ADR-RES ovarian
[45] = test system: HCT-15 colon
[46] = test system: PC-3 prostate
[47] = test system: OVCAR-3 ovarian
[48] = test system: TK-10 renal
[49] = test system: A498 renal
[50] = test system: SNB-75 CNS
[51] = test system: M14 melanoma
[52] = test system: MALME-3M melanoma
[53] = test system: IGROV1 ovarian
[54] = test system: UO-31 renal
[55] = test system: OVCAR-5 ovarian
[56] = test system: MDA-MB-231 breast
[57] = test system: BT-549 breast

Structure (SMILES): COc1ccc(-c2oc3cc(O)c(OC)c(O)c3c(=O)c2OC)cc1O
- GI50 [1]: 2380 nM
- TGI [1]: 28300 nM
- GI50 [2]: 76.2 nM
- TGI [2]: 6560 nM
- GI50 [3]: 75.4 nM
- TGI [3]: > 100000 nM
- GI50 [4]: 316 nM
- TGI [4]: > 100000 nM
- GI50 [5]: 138 nM
- TGI [5]: 4340 nM
- GI50 [6]: 300 nM
- TGI [6]: 2040 nM
- GI50 [7]: 417 nM
- TGI [7]: > 100000 nM
- GI50 [8]: 311 nM
- TGI [8]: > 100000 nM
- GI50 [9]: 1260 nM
- TGI [9]: > 100000 nM
- GI50 [10]: 27.5 nM
- TGI [10]: 212 nM
- GI50 [11]: 437 nM
- TGI [11]: 20900 nM
- GI50 [12]: > 100000 nM
- TGI [12]: > 100000 nM
- GI50 [13]: 207 nM
- TGI [13]: 16400 nM
- GI50 [14]: 39 nM
- TGI [14]: > 100000 nM
- GI50 [15]: 77.5 nM
- TGI [15]: > 100000 nM
- GI50 [16]: 212 nM
- TGI [16]: > 100000 nM
- GI50 [17]: 375 nM
- TGI [17]: > 100000 nM
- GI50 [18]: 58.9 nM
- TGI [18]: 7870 nM
- GI50 [19]: 3430 nM
- TGI [19]: > 100000 nM
- GI50 [20]: 76.6 nM
- TGI [20]: > 100000 nM
- GI50 [21]: 70.8 nM
- TGI [21]: > 100000 nM
- GI50 [22]: 3460 nM
- TGI [22]: > 100000 nM
- GI50 [23]: 509 nM
- TGI [23]: > 100000 nM
- GI50 [24]: 189 nM
- TGI [24]: > 100000 nM
- GI50 [25]: 43.6 nM
- TGI [25]: > 100000 nM
- GI50 [26]: 343 nM
- TGI [26]: > 100000 nM
- GI50 [27]: 171 nM
- TGI [27]: > 100000 nM
- GI50 [28]: 78.6 nM
- TGI [28]: 2670 nM
- GI50 [29]: 1070 nM
- TGI [29]: > 100000 nM
- GI50 [30]: 37 nM
- TGI [30]: 715 nM
- GI50 [31]: 44.5 nM
- TGI [31]: 21900 nM
- GI50 [32]: 578 nM
- TGI [32]: 7420 nM
- GI50 [33]: 25 nM
- TGI [33]: 67.4 nM
- GI50 [34]: 2500 nM
- TGI [34]: > 100000 nM
- GI50 [35]: 3500 nM
- TGI [35]: > 100000 nM
- GI50 [36]: 1520 nM
- TGI [36]: > 100000 nM
- GI50 [37]: 443 nM
- TGI [37]: > 100000 nM
- GI50 [38]: 48.5 nM
- TGI [38]: > 100000 nM
- GI50 [39]: 536 nM
- TGI [39]: > 100000 nM
- GI50 [40]: 271 nM
- TGI [40]: > 100000 nM
- GI50 [41]: 5850 nM
- TGI [41]: 28800 nM
- GI50 [42]: 1220 nM
- TGI [42]: > 100000 nM
- GI50 [43]: 819 nM
- TGI [43]: > 100000 nM
- GI50 [44]: 45.6 nM
- TGI [44]: > 100000 nM
- GI50 [45]: 92.8 nM
- TGI [45]: > 100000 nM
- GI50 [46]: 4440 nM
- TGI [46]: > 100000 nM
- GI50 [47]: 43.2 nM
- TGI [47]: 194 nM
- GI50 [48]: 21100 nM
- TGI [48]: > 100000 nM
- GI50 [49]: 210 nM
- TGI [49]: 801 nM

Structure (SMILES): C=CC1CC1(CO)COc1cc(Cl)nc(N)n1 (centres undefined)
- GI50 [50]: 86400 nM

Structure (SMILES): COc1ccc2ncn(-c3cc(O[C@H](C)c4ccccc4Cl)c(C(N)=O)s3)c2c1
- GI50 [1]: 189 nM
- TGI [1]: > 25000 nM
- GI50 [2]: 21 nM
- TGI [2]: 3640 nM
- GI50 [50]: 148 nM
- TGI [50]: > 19700 nM
- GI50 [3]: 31.6 nM
- TGI [3]: > 25000 nM
- GI50 [4]: 8.95 nM
- TGI [4]: 4170 nM
- GI50 [5]: 13.3 nM
- TGI [5]: 3510 nM
- GI50 [6]: 18.9 nM
- TGI [6]: 7050 nM
- GI50 [7]: 16 nM
- TGI [7]: 8710 nM
- GI50 [8]: 21.3 nM
- TGI [8]: 3990 nM
- GI50 [9]: 869 nM
- TGI [9]: > 25000 nM
- GI50 [10]: 8.49 nM
- TGI [10]: 2810 nM
- GI50 [11]: 9.07 nM
- TGI [11]: 5230 nM
- GI50 [12]: 444 nM
- TGI [12]: > 22700 nM
- GI50 [13]: 24.6 nM
- TGI [13]: > 25000 nM
- GI50 [14]: 12 nM
- TGI [14]: 1530 nM
- GI50 [15]: 105 nM
- TGI [15]: > 25000 nM
- GI50 [16]: 954 nM
- TGI [16]: > 25000 nM
- GI50 [17]: 27.4 nM
- TGI [17]: 20800 nM
- GI50 [18]: 16.5 nM
- TGI [18]: 221 nM
- GI50 [19]: 183 nM
- TGI [19]: > 25000 nM
- GI50 [20]: 28 nM
- TGI [20]: 4830 nM
- GI50 [21]: 23.4 nM
- TGI [21]: > 25000 nM
- GI50 [22]: 404 nM
- TGI [22]: 8010 nM
- GI50 [23]: 12.2 nM
- TGI [23]: > 10500 nM
- GI50 [51]: 16.4 nM
- TGI [51]: > 25000 nM
- GI50 [24]: 81.4 nM
- TGI [24]: > 25000 nM
- GI50 [25]: 14.5 nM
- TGI [25]: > 25000 nM
- GI50 [52]: 8210 nM
- TGI [52]: > 25000 nM
- GI50 [26]: 8.61 nM
- TGI [26]: 6350 nM
- GI50 [27]: 10.5 nM
- TGI [27]: 3780 nM
- GI50 [28]: 9.51 nM
- TGI [28]: 540 nM
- GI50 [29]: 28.7 nM
- TGI [29]: > 25000 nM
- GI50 [30]: 76.3 nM
- TGI [30]: 1260 nM
- GI50 [53]: 28.4 nM
- TGI [53]: > 25000 nM
- GI50 [31]: 37.4 nM
- TGI [31]: 5540 nM
- GI50 [32]: 281 nM
- TGI [32]: 8270 nM
- GI50 [54]: 1410 nM
- TGI [54]: 17000 nM
- GI50 [34]: 600 nM
- TGI [34]: 12700 nM
- GI50 [35]: 8.13 nM
- TGI [35]: 9130 nM
- GI50 [36]: 1130 nM
- TGI [36]: > 25000 nM
- GI50 [37]: 19.7 nM
- TGI [37]: > 18300 nM
- GI50 [55]: 26.3 nM
- TGI [55]: > 25000 nM
- GI50 [38]: 9.26 nM
- TGI [38]: 3690 nM
- GI50 [40]: 19.2 nM
- TGI [40]: > 25000 nM
- GI50 [41]: 9.53 nM
- TGI [41]: 436 nM
- GI50 [42]: 34.8 nM
- TGI [42]: 5510 nM
- GI50 [43]: 1070 nM
- TGI [43]: 8300 nM
- GI50 [56]: 45.4 nM
- TGI [56]: > 17300 nM
- GI50 [44]: 10.7 nM
- TGI [44]: 2880 nM
- GI50 [45]: 20.3 nM
- TGI [45]: > 25000 nM
- GI50 [46]: 73.3 nM
- TGI [46]: > 25000 nM
- GI50 [47]: 8.63 nM
- TGI [47]: 1070 nM
- GI50 [48]: 1190 nM
- TGI [48]: 11100 nM
- GI50 [57]: 448 nM
- TGI [57]: 13300 nM
- GI50 [49]: 44.1 nM
- TGI [49]: 570 nM
